From ChEMBL document CHEMBL1152733, “Specificities of calreticulin transacetylase to acetoxy derivatives of 3-alkyl-4-methylcoumarins: effect on the activation of nitric oxide synthase” (Bioorg Med Chem, 2009)
Active and inactive are the calls of the source.

Assays:
Platelet = assay: Increase in NO levels in citreated human platelet rich plasma assessed as enhancement of dichloro fluorescein fluorescence by flow cytometry; assay type: functional
Rattus norvegicus [1] = species on record: Rattus norvegicus; assay: Inhibition of rat liver microsomal CRTAase-mediated inhibition of cytosolic glutathione S-transferase activity
Rattus norvegicus [2] = species on record: Rattus norvegicus; assay: Inhibition of rat liver microsomal CRTAase catalyzed activation of NADPH cytochrome C reductase

Measured: Activity

CCCCCCc1c(C)c2ccc(OC(C)=O)cc2oc1=O
active: Platelet | Rattus norvegicus [1] | Rattus norvegicus [2]

CCCCCCCCCCc1c(C)c2ccc(OC(C)=O)cc2oc1=O
active: Platelet | Rattus norvegicus [1] | Rattus norvegicus [2]

CCCCCCCCCCc1c(C)c2ccc(OC(C)=O)c(OC(C)=O)c2oc1=O
active: Platelet | Rattus norvegicus [1] | Rattus norvegicus [2]

CCc1c(C)c2ccc(OC(C)=O)c(OC(C)=O)c2oc1=O
active: Platelet | Rattus norvegicus [1] | Rattus norvegicus [2]

CC(=O)Oc1ccc2c(C)cc(=O)oc2c1OC(C)=O
active: Platelet | Rattus norvegicus [1] | Rattus norvegicus [2]

CCc1c(C)c2ccc(OC(C)=O)cc2oc1=O
active: Platelet | Rattus norvegicus [1] | Rattus norvegicus [2]

CCCCCCc1c(C)c2ccc(OC(C)=O)c(OC(C)=O)c2oc1=O
active: Platelet | Rattus norvegicus [1] | Rattus norvegicus [2]

CC(=O)Oc1ccc2c(C)cc(=O)oc2c1
active: Platelet | Rattus norvegicus [1] | Rattus norvegicus [2]
